Laboratory results reported in doi:10.1101/2025.10.24.684335v1 (bioRxiv, 2025).

How the values were obtained:
Type in all cases: cell-based, human
AKT = AKT phosphorylation; conditions: normalized to GAPDH
ERK = ERK phosphorylation in hCMEC/D3 monolayers, Western blot; conditions: normalized to GAPDH
RAGE = RAGE expression in hCMEC/D3 membrane fraction, Western blot; conditions: normalized to calnexin
claudin-5 = assay: Claudin-5 immunocytochemistry in hCMEC/D3 monolayers, confocal microscopy; conditions: 10 nM butyrate 6 h, 1 μM Aβ42 for the last hour; AF647 immunofluorescence
[1] = 10 nM butyrate 6 h with 50 nM insulin for 5 min, p<0.05

CCCC(=O)O [butyrate, sodium butyrate]
AKT phosphorylation, fold increase vs insulin alone-treated group (AKT; [1]): 3 fold | ERK phosphorylation, fold increase vs insulin alone-treated group (ERK; [1]): ~1.3 fold | RAGE expression vs Aβ42 alone (reversal of Aβ42-induced increase) (RAGE; butyrate 5 h then co-incubation with 1 μM Aβ42 for 1 h): not significant | Claudin-5 expression vs Aβ42 alone group (claudin-5): increased

insulin: insulin used at 50 nM to stimulate insulin signaling
AKT phosphorylation vs untreated group (AKT; 50 nM insulin 5 min alone): not statistically significant | ERK phosphorylation, fold increase vs untreated group (ERK; 50 nM insulin 5 min alone, p<0.001): 3 fold

Aβ42: unlabeled amyloid beta 42 peptide supplied by Aapptec [reference compound]
RAGE expression, fold increase vs control (RAGE; 1 μM Aβ42 for 1 h alone, p<0.05): 2.4 fold
